Drawing on patent EP4692083A1, “NOVEL AZABICYCLE DERIVATIVES AND PHARMACEUTICAL COMPOSITION FOR INHIBITING AUTOTAXIN, COMPRISING SAME” (Nextgen Bioscience Co., Ltd., priority 2023, dated 2024), this text covers inhibition for eight compounds.

Each structure is given as a SMILES string.

For the assay, the target named is human Autotaxin protein (Homo sapiens, UniProt Q13822). In words: Evaluation of the inhibitory activity against human Autotaxin protein (18:1 LysoPC substrate, choline assay kit, absorbance at 570 nm). Format: biochemical. Conditions: at 500nM compound, 2 hours at 37 °C, read-out: Inhibition rate (%, at 500nM). The protocol:
Solutions of each synthesized compound (80 uM, 100% dimethyl sulfoxide) were sequentially diluted 5-fold with dimethyl sulfoxide to prepare 6 concentrations. Each concentration of the compound was diluted 2-fold with 1x test buffer (50 mM Tris-Cl (pH 8.0), 5 mM KCl, 1 mM CaCl2, 1 mM MgCl2, 140 mM NaCl, deionized water, 1 mg/mL BSA), and 1 uL (1.25% dimethylsulfoxide) of the diluted mixture was dispensed into each well of a 96-well clear round-bottom plate. 9 uL of 1x test buffer was added, and 20 uL of 240 nM human autotaxin protein (buffer: 50 mM Tris-HCl, pH 8.0, with 150 mM sodium chloride and 20% glycerol) was added. 10 uL of sonicated 360 uM 18:1 LysoPC (diluted with 1x assay buffer) was added. The reaction was performed for 2 hours in a shaking incubator at 37 °C, and a secondary reaction mixture (choline assay kit, KA1662) (65 uL of 1x assay buffer: 1 uL of choline oxidase: 1 uL of dye probe) was prepared. 60 uL of the secondary reaction mixture was added to the plate where the reaction was performed, and incubated for 30 minutes in a shaker. The absorbance value was measured at a wavelength of 570 nm using a SpectraMax iD3 microplate reader. The percentage inhibition activity value (% inhibition) was calculated by the formula: (1 - absorbance value test group / absorbance value control group) X 100.
On to `N#Cc1cccc(CNc2ncc(-c3nnc(N4C[C@@H]5[C@H](C4)[C@H]5c4cnn[nH]4)o3)cn2)c1` [Example 25, 3-(((5-(5-((1R,5S,6r)-6-(1H-1,2,3-Triazol-5-yl)-3-azabicyclo[3.1.0]hexan-3-yl)-1,3,4-oxadiazol-2-yl)pyrimidin-2-yl)amino)methyl)benzonitrile], for which the inhibition at 0.5 µM was 95.2%.
`Clc1cc(Cl)cc(CCNc2ncc(-c3nnc(N4C[C@@H]5[C@H](C4)[C@H]5c4cnn[nH]4)o3)cn2)c1` [Example 29, 5-(5-((1R,5S,6r)-6-(1H-1,2,3-Triazol-5-yl)-3-azabicyclo[3.1.0]hexan-3-yl)-1,3,4-oxadiazol-2-yl)-N-(3,5-dichlorophenethyl)pyrimidin-2-amine]: the inhibition at 0.5 µM turned out to be 97%.
The value for `Brc1ccc2c(c1)CC(Nc1ncc(-c3nnc(N4C[C@@H]5[C@H](C4)[C@H]5c4cnn[nH]4)o3)cn1)C2` (stereo partly drawn) [Example 18, 5-(5-((1R,5S,6r)-6-(1H-1,2,3-Triazol-5-yl)-3-azabicyclo[3.1.0]hexan-3-yl)-1,3,4-oxadiazol-2-yl)-N-(5-bromo-2,3-dihydro-1H-inden-2-yl)pyrimidin-2-amine] was 87.6%; that for `O=C(CCCc1nnc(NC2Cc3ccccc3C2)s1)N1C[C@@H]2[C@H](C1)[C@H]2c1cnn[nH]1` [Example 38, 1-((1R,5S,6r)-6-(1H-1,2,3-Triazol-5-yl)-3-azabicyclo[3.1.0]hexan-3-yl)-4-(5-((2,3-dihydro-1H-inden-2-yl)amino)-1,3,4-thiadiazol-2-yl)butan-1-one] was 25.5%; that for `c1ccc(CNc2ncc(-c3nnc(N4C[C@@H]5[C@H](C4)[C@H]5c4cnn[nH]4)o3)cn2)cc1` [Example 1, 5-(5-((1R,5S,6r)-6-(1H-1,2,3-Triazol-5-yl)-3-azabicyclo[3.1.0]hexan-3-yl)-1,3,4-oxadiazol-2-yl)-N-benzylpyrimidin-2-amine] was 63.6%.
The value for `Clc1cccc(CCNc2ncc(-c3nnc(N4C[C@@H]5[C@H](C4)[C@H]5c4cnn[nH]4)o3)cn2)c1` [Example 14, 5-(5-((1R,5S,6r)-6-(1H-1,2,3-Triazol-5-yl)-3-azabicyclo[3.1.0]hexan-3-yl)-1,3,4-oxadiazol-2-yl)-N-(3-chlorophenethyl)pyrimidin-2-amine] was 85.3%; that for `Clc1cccc(CNc2ncc(-c3nnc(N4C[C@@H]5[C@H](C4)[C@H]5c4cnn[nH]4)o3)cn2)c1` [Example 2, 5-(5-((1R,5S,6r)-6-(1H-1,2,3-Triazol-5-yl)-3-azabicyclo[3.1.0]hexan-3-yl)-1,3,4-oxadiazol-2-yl)-N-(3-chlorobenzyl)pyrimidin-2-amine] was 88.5%.
Regarding `O=C(O)C[C@@H]1[C@H]2CN(c3nnc(-c4cnc(NCCc5ccc(Cl)cc5)nc4)o3)C[C@@H]12` [Example 51, 2-((1R,5S,6s)-3-(5-(2-((4-Chlorophenethyl)amino)pyrimidin-5-yl)-1,3,4-oxadiazol-2-yl)-3-azabicyclo[3.1.0]hexan-6-yl)acetic acid], the inhibition at 0.5 µM turned out to be 3.5%.

One may read the inhibition as the change of the read-out against control, counted positive when it falls.
